Where two headings read alike, the source gives them in different places. One block for each compound: values may come before it.
What was measured:
α7 nAChR S222M = target: T1, α7 nAChR S222M (Homo sapiens, UniProt P36544, S245M); assay: Two-electrode voltage-clamp recording of mutated α7 nAChR (S222M) in Xenopus oocytes; format: cell-based
T1 construct: expressed in transfected cells; host or cells: Xenopus laevis oocytes, injected with in vitro transcribed cRNA
Experimental: (§1) Site-directed mutagenesis was performed using the QuikChange mutagenesis kit (Agilent Technologies) and verified by nucleotide sequencing (Source Bioscience).
(§2) Heterologous expression was achieved by cytoplasmic injection of in vitro transcribed cRNA. Prior to in vitro synthesis of cRNA plasmid cDNA was linearized by restriction enzyme digestion and purified with QIAQuik PCR purification kit (Qiagen). In vitro synthesis of cRNA was performed using mMessage mMachine SP6 and T7 transcription kits (ThermoFisher Scientific). Oocytes were injected with approximately 9 ng cRNA using a Drummond variable volume microinjector. […] Experiments were performed on oocytes after 3–5 days of incubation. […] Application of compounds was controlled by LabChart software (AD Instruments) using a BPS-8 solenoid valve solution exchange system (ALA Scientific Inc). Allosteric modulators were pre-applied for 30 s before co-application with agonist.
(§3) Data are presented as means ± SEM of at least three independent experiments, that were conducted on separate oocytes. For multiple comparisons, statistical significance was determined with an unpaired one-way analysis of variance (ANOVA). Post-hoc analysis was performed with a Tukey multiple comparison test. For individual comparisons, statistical significance was determined using unpaired t-tests.

α7 nAChR L247A = target: T2, α7 nAChR L247A (Homo sapiens, UniProt P36544, L247A/L270A); assay: Two-electrode voltage-clamp recording of mutated α7 nAChR (L247A) in Xenopus oocytes; format: cell-based
T2 construct: expressed in transfected cells; host or cells: Xenopus laevis oocytes, injected with in vitro transcribed cRNA
T2 sequence (P36544 23-502 L247A/L270A): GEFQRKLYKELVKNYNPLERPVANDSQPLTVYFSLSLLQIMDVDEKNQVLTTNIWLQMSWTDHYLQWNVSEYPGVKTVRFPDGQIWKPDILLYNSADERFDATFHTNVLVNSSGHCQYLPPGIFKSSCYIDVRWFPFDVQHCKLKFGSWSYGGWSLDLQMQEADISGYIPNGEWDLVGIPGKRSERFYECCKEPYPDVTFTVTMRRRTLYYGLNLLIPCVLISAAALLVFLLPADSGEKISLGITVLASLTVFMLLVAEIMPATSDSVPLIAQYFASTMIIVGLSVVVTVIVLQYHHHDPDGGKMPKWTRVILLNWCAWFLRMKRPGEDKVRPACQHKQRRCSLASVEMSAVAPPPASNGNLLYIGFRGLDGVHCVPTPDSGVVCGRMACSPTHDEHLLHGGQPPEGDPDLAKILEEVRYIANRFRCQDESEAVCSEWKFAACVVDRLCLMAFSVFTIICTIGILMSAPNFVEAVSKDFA
Experimental: as §1, §2, §3

α7 nAChR T288A = α7 nAChR T288A (Homo sapiens, UniProt P36544, T311A); assay: cell-based
Chain of α7 nAChR T288A (P36544 23-502 T311A): as the sequence (P36544 23-502 L247A/L270A) above, with A225L, A248L, T289A counted along it
Experimental: as §1, §2, §3

α7 nAChR S248A = α7 nAChR S248A (Homo sapiens, UniProt P36544, S271A); assay: cell-based
Chain of α7 nAChR S248A (P36544 23-502 S271A): as the sequence (P36544 23-502 L247A/L270A) above, with A225L, A248L, S249A counted along it
Experimental: as §1, §2, §3

[1] = target: α7/5-HT3AR chimera (extracellular domain of human α7 nAChR fused to transmembrane and C-terminal domain of mouse 5-HT3AR) (UniProt P23979+P36544, M226I/T225I); conditions: for effect on response evoked by maximal agonist concentration: compound 100 μM, 3 mM ACh
Chain of α7/5-HT3AR chimera (extracellular domain of human α7 nAChR fused to transmembrane and C-terminal domain of mouse 5-HT3AR) (P36544+P23979 fused P36544:T225I/P36544:M226I): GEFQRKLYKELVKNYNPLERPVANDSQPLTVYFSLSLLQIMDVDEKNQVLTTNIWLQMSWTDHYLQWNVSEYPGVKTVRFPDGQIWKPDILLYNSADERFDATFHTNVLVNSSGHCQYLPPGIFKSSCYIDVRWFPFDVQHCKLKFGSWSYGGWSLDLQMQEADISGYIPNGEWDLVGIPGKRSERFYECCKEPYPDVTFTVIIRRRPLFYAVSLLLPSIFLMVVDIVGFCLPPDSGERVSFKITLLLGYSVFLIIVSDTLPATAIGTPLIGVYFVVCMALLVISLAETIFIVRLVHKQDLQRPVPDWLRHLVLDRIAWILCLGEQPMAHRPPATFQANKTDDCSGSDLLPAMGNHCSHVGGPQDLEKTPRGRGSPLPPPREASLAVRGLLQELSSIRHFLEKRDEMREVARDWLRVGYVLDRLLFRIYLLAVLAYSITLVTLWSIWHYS
Experimental: as §1, §2, §3

mouse 5-HT3AR = target: T3, mouse 5-HT3AR (Mus musculus, UniProt P23979); conditions: for response evoked by maximal agonist concentration in presence of compound: compound 100 μM, 30 μM 5-HT
T3 sequence (P23979 24-489): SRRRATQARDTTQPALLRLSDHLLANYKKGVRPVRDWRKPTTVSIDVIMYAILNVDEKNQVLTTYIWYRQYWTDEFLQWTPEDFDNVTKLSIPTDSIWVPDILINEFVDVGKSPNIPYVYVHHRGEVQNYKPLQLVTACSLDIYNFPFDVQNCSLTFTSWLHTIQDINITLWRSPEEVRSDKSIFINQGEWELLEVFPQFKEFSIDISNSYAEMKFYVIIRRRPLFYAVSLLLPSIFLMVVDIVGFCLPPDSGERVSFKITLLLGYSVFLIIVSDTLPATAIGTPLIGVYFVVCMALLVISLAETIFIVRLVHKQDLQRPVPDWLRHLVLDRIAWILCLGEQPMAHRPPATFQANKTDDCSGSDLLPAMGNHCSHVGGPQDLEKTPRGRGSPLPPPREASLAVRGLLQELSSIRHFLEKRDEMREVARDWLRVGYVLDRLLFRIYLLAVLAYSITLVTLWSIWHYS
Experimental: as §1, §2, §3

human α7 nAChR = target: T4, human α7 nAChR (Homo sapiens, UniProt P36544); assay: Two-electrode voltage-clamp recording of wild-type human α7 nAChR expressed in Xenopus oocytes; format: cell-based; conditions: for effect when applied alone: no ACh; for nature of antagonism against a range of ACh concentrations / response evoked by maximal agonist concentration in presence of compound: compound 100 μM; for response evoked by maximal agonist concentration in presence of compound: 3 mM ACh; for response to an EC50 concentration of ACh, % of the control response: compound 1 mM, ACh 100 μM; for activity at 100 µM: read-out: normalised response to EC50 ACh in presence of compound
T4 construct: expressed in transfected cells; host or cells: Xenopus laevis oocytes, injected with in vitro transcribed cRNA
T4 sequence (P36544 23-502): as the sequence (P36544 23-502 L247A/L270A) above, with A225L, A248L counted along it
Experimental: as §2, with “Allosteric modulators were pre-applied for 30 s before co-application with agonist.” left out
as §3

α7 nAChR M260L = target: T5, α7 nAChR M260L (Homo sapiens, UniProt P36544, M283L); assay: Two-electrode voltage-clamp recording of mutated α7 nAChR (M260L) in Xenopus oocytes; format: cell-based; conditions: for activity at 100 µM: read-out: normalised response to EC50 ACh in presence of compound
T5 construct: expressed in transfected cells; host or cells: Xenopus laevis oocytes, injected with in vitro transcribed cRNA
T5 sequence (P36544 23-502 M283L): as the sequence (P36544 23-502 L247A/L270A) above, with A225L, A248L, M261L counted along it
Experimental: as §1, §2, §3

[2] = furosemide 1 mM, EC50 ACh (100 μM)
[3] = furosemide 1 mM, EC50 agonist (100 μM ACh)
[4] = furosemide 1 mM, maximal agonist (3 mM ACh)
[5] = co-application only, no pre-application
[6] = read-out: normalised response to EC50 ACh in presence of compound

T1 sequence (P36544 23-502 S245M): as the sequence (P36544 23-502 L247A/L270A) above, with S223M, A225L, A248L counted along it

- potentiation of an EC50 concentration of ACh by furosemide (α7 nAChR S222M; [2]): 244 ± 25%
- ACh-evoked response in presence of furosemide, relative to control response (α7 nAChR L247A; furosemide 1 mM, EC50 ACh (10 μM)): 99.9 ± 4.3%
- ACh-evoked response in presence of furosemide, relative to control response (α7 nAChR T288A; [2]): 99.2 ± 1.2%
- ACh-evoked response in presence of furosemide, relative to control response (α7 nAChR S248A; [2]): 102 ± 5.6%
- agonist-evoked response in presence of furosemide [1, 3]: 98.2 ± 3.4%
- agonist-evoked response in presence of furosemide (potentiation) [1, 4]: 108 ± 2%
- agonist effect when applied alone (mouse 5-HT3AR; compound alone, no 5-HT): no agonist effect
- agonist-evoked response in presence of furosemide (mouse 5-HT3AR; furosemide 1 mM, EC50 agonist (1 μM 5-HT)): 93.9 ± 3.7%
- agonist-evoked response in presence of furosemide (potentiation) (mouse 5-HT3AR; furosemide 1 mM, maximal agonist (30 μM 5-HT)): 108 ± 2%
- type of allosteric modulation (human α7 nAChR): type I PAM
- potentiation of ACh responses in the absence of pre-application (human α7 nAChR; [5]): no significant potentiation
- maximum level of potentiation of ACh responses (human α7 nAChR; furosemide 1 mM): 1.6 ± 0.1 fold
- effect when applied alone (human α7 nAChR; furosemide 1 mM): no effect
- agonist-evoked response in presence of furosemide (potentiation) (human α7 nAChR; [3]): 136 ± 7%
- agonist-evoked response in presence of furosemide (potentiation) (human α7 nAChR; [4]): 149 ± 6%
- EC50 (human α7 nAChR; read-out: EC50 for potentiation of agonist-evoked responses): 200 ± 40 µM
- agonist-evoked response in presence of furosemide, of the control response (α7 nAChR M260L; [2]): 63 ± 8%
SMILES: NS(=O)(=O)c1cc(C(=O)O)c(NCc2ccco2)cc1Cl [furosemide, Furosemide]

- activity at 100 µM (α7 nAChR S222M; [6]): 77.2 ± 3.7%
- activity at 100 µM (α7 nAChR T288A; [6]): 65 ± 1.2%
- activity at 100 µM (α7 nAChR S248A; [6]): 99.6 ± 1.6%
- response evoked by maximal agonist concentration in presence of compound (mouse 5-HT3AR): did not cause significant inhibition
- IC50 (human α7 nAChR): 1700 ± 300 µM
- type of allosteric modulation (human α7 nAChR): NAMs
- antagonism in the absence of pre-application (human α7 nAChR; [5]): significant antagonism
- nature of antagonism against a range of ACh concentrations (human α7 nAChR): non-surmountable
- response evoked by maximal agonist concentration in presence of compound (human α7 nAChR): 76.0 ± 4.8%
- response to an EC50 concentration of ACh, % of the control response (human α7 nAChR): 60.6 ± 1.2%
- activity at 100 µM (human α7 nAChR): 90.6 ± 1.8%
- activity at 100 µM (α7 nAChR M260L): 101 ± 3.1%
SMILES: CNS(=O)(=O)c1ccc(N/C=C2\C(=O)Nc3ccccc32)cc1 [DB08122, N-methyl-4-{[(2-oxo-1,2-dihydro-3h-indol-3-ylidene)methyl]amino}b en z en esul fon ami de]
- effect on response evoked by maximal agonist concentration [1]: not significantly different to their effects on 5-HT3ARs
- effect when applied alone (human α7 nAChR; compound alone): None of the three compounds had any significant effect when applied alone

SMILES: Cc1cc(C)[n+](CCc2ccc(S(N)(=O)=O)cc2)c(C)c1 [DB04763, 1-N-(4-sulfamoylphenyl-ethyl)-2,4,6-tri methyl p yr id i ni u m]
- activity at 100 µM (α7 nAChR L247A; [6]): 52.4 ± 0.8%
- effect on response evoked by maximal agonist concentration [1]: not significantly different to their effects on 5-HT3ARs
- response evoked by maximal agonist concentration in presence of compound (mouse 5-HT3AR): 92.1 ± 1.7%
- type of allosteric modulation (human α7 nAChR): NAMs
- antagonism in the absence of pre-application (human α7 nAChR; [5]): significant antagonism
- nature of antagonism against a range of ACh concentrations (human α7 nAChR): non-surmountable
- response evoked by maximal agonist concentration in presence of compound (human α7 nAChR): 20.0 ± 1.3%
- response to an EC50 concentration of ACh, % of the control response (human α7 nAChR): 3.4 ± 0.9%
- effect when applied alone (human α7 nAChR; compound alone): None of the three compounds had any significant effect when applied alone
- IC50 (human α7 nAChR; read-out: IC50 for inhibition of agonist-evoked responses): 46.4 ± 2.2 µM
- activity at 100 µM (human α7 nAChR): 20.1 ± 3.1%
- activity at 100 µM (α7 nAChR M260L): 30.1 ± 2.4%
